{"source": "patent US20150374394A1", "about": "“SONOLYSIS WITH BIODEGRADABLE NANOPARTICLES” (THE BOARD OF TRUSTEES OF THE UNIVERSITY OF ARKANSAS, priority 2012, published 2015)", "test_system": "clots formed from pooled rabbit plasma with rabbit blood cells", "assay": "In vitro sonothrombolysis (STBL) of clots with MBs, CPDL, tPA and/or 450 nm StNPs, pulsed 1 MHz ultrasound", "conditions": "pulsed 1 MHz ultrasound 15 min, in bovine calf serum, 0.5 mL/min; control ultrasound alone; 3 μm MBs, 0.1 mg/ml tPA, 0.06% w/V CPDL nanoemulsion", "method": "FIG. 1 depicts a graph showing the potentiation of sonothrombolysis (STBL) efficacy by microbubbles (MBs) and/or a nanoemulsion of cyclopentadecanolide with or without tissue plasminogen activator (tPA). […] STBL was performed with fibrin-rich clots (see Example 2) using pulsed, 1 MHz ultrasound for 15 min. The MBs, tPA, StNPs etc. were suspended in bovine calf serum and introduced at a flow rate of 0.5 mL/min. STBL efficacy is reported as % clot lysis. Abbreviations: US=ultrasound; MBs=microbubbles; CPDL=cyclopentadecanolide; StNPs=starch nanoparticles; tPA=tissue plasminogen activator.\nThe clots used in these experiments were formed by mixing pooled rabbit plasma with rabbit blood cells (final volume equal to 2 mL; the volume of whole rabbit blood from which the cells were obtained), incubating this mixture for 24 h at 37° C. and then curing the formed clots for 24 h at 5° C. […] The StNPs were diluted to have an Optical Density reading at 530 nm (OD530) of 1.0. […] STBL efficacy was measured as the percent of the initial clot mass that was lost from the clot during the 15 min treatment time.", "data": [{"smiles": "O=C1CCCCCCCCCCCCCCO1", "note": "[CPDL, cyclopentadecanolide]", "values": [{"measurement": "STBL efficacy (FIG. 1), in words", "result": "improved STBL efficacy markedly"}]}]}
